Patent US7803830B2, “3-amino-1-arylpropyl indoles and AZA-substituted indoles and uses thereof” (Roche Palo Alto LLC, priority 2005, dated 2010)
Where a name gives a salt, the structure may show the parent alone.

| SMILES | melting point [°C] |
| --- | --- |
| CNCCC(c1ccc2[nH]ccc2c1)c1ccc2nccnc2c1 (stereo not shown) [compound 123, [3-(1H-lndol-5-yl)-3-quinoxalin-6-yl-propyl]-methyl-amine] | 60.3 to 62 |
| CNCC[C@H](c1ccccc1)c1cccc2cn[nH]c12 (as salt: TFA) [compound 55, [(R)-3-(1H-Indazol-7-yl)-3-phenyl-propyl]-methyl-amine] | 61.9 to 65.7 |
| NCCC(c1ccc2ncccc2c1)c1ccc2[nH]ccc2c1 (stereo not shown) [compound 120, 3-(1H-Indol-5-yl)-3-quinolin-6-yl-propylamine] | 60.9 to 62.9 |
| CNCCC(c1ccccc1)c1cccc2[nH]ncc12 (stereo not shown) (as salt: HCl) [compound 49, [3-(1H-Indazol-4-yl)-3-phenyl-propyl]-methyl-amine] | 130.6 to 133.1 |
| CNCC[C@@H](c1ccccc1)c1cccc2cn[nH]c12 (as salt: TFA) [compound 56, [(S)-3-(1H-Indazol-7-yl)-3-phenyl-propyl]-methyl-amine] | 62 to 68.1 |
| CNCCC(c1ccccc1)c1ccc2[nH]nc(C)c2c1 (stereo not shown) (as salt: TFA) [compound 58, Methyl-[3-(3-methyl-1H-indazol-5-yl)-3-phenyl-propyl]-amine] | 64.5 to 66 |

Now from value to compound:

| melting point [°C] | SMILES |
| --- | --- |
| > 300 | CNCCC(c1ccc2cc[nH]c2c1)c1ccccn1 (stereo not shown) (as salt: HCl) (hydrate or solvate) [compound 21] |
| 62 to 63 | CNCCC(c1cccc(Cl)c1)c1ccc2cc[nH]c2c1 (stereo not shown) (as salt: HCl) [compound 36, [3-(3-Chloro-phenyl)-3-(1H-indol-6-yl)-propyl]-methyl-amine] |
| 56 to 58 | CNCCC(c1cnc2ccccc2c1)c1ccc2[nH]ccc2c1 (stereo not shown) [compound 137, [3-(1H-Indol-5-yl)-3-quinolin-3-yl-propyl]-methyl-amine] |
| 142 to 152 | CNCCC(c1ccc2[nH]ccc2c1)c1ccc2[nH]ccc2c1 [compound 111, [3,3-Bis-(1H-indol-5-yl)-propyl]-methyl-amine] |
